ChEMBL document CHEMBL1144334, “Synthesis and structure-activity relationships of isoxazole carboxamides as growth hormone secretagogue receptor antagonists” (Bioorg Med Chem Lett, 2005)

Legend:
[1] = molecular target: T1, Growth hormone secretagogue receptor type 1 (Homo sapiens, UniProt Q92847); assay: Inhibition of binding to human growth hormone secretagogue receptor
[2] = molecular target: T1, Growth hormone secretagogue receptor type 1; assay: Inhibition of ghrelin-induced increase of intracellular [Ca2+] in CHO K cell FLIPR assay; type: functional, cell-based
Rattus norvegicus [3] = assay: Oral bioavailability in rat; type: functional, organism-based
Rattus norvegicus [4] = organism: Rattus norvegicus; assay: Rate of metabolism measured in rat liver microsomes for 30 min

T1 sequence (Q92847 whole entry): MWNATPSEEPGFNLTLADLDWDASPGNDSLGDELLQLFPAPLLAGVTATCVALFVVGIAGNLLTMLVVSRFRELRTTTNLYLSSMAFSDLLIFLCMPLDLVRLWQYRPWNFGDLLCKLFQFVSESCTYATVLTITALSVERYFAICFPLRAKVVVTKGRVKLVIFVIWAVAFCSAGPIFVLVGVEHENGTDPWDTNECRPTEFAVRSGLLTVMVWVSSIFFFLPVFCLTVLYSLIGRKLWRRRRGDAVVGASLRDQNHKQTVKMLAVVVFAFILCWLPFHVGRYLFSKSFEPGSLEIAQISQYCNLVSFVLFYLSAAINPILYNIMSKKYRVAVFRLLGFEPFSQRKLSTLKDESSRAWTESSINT

SMILES | IC50 [1] | IC50 [2] | bioavailability (Rattus norvegicus [3]) | Rate of metabolism (Rattus norvegicus [4])
Cc1onc(-c2c(Cl)cccc2Cl)c1C(=O)Nc1ccccc1C(=O)N1CCCCCC1 | 860 nM | 510 nM | – | –
CCN(CC)c1ccc(NC(=O)c2c(-c3ccccc3[N+](=O)[O-])noc2C)cc1 | 550 nM | 620 nM | – | –
CCN(CCO)c1ccc(NC(=O)c2c(-c3c(Cl)cccc3Cl)noc2C)cc1 | 9200 nM | 3100 nM | – | –
CCN(CC)c1ccc(NC(=O)c2c(-c3c(Cl)cccc3Cl)noc2C)cc1 | – | – | 4% | 800 pM/mg/min
CCN(CC)c1ccc(NC(=O)c2c(-c3c(Cl)cccc3Cl)noc2C)c(C)c1 | 37 nM | 39 nM | 1% | –
CCNc1ccc(NC(=O)c2c(-c3c(Cl)cccc3Cl)noc2C)cc1 | > 10000 nM | – | – | –
Cc1onc(-c2c(Cl)cccc2Cl)c1C(=O)Nc1ccc(N2CCCCC2)cc1 | > 10000 nM | – | – | –
CCN(CC)c1ccc(NC(=O)c2c(-c3ccccc3)noc2C)cc1 | 8200 nM | 7600 nM | – | –
Cc1onc(-c2c(Cl)cccc2Cl)c1C(=O)Nc1ccccc1C(=O)NCc1ccc2c(c1)OCO2 | 350 nM | 4900 nM | – | –
CCN(CC)Cc1ccc(NC(=O)c2c(-c3c(Cl)cccc3Cl)noc2C)cc1 | > 10000 nM | – | – | –
CCN(CC)c1ccc(NC(=O)c2c(-c3ccccc3-c3ccccc3)noc2C)cc1 | 1300 nM | 6300 nM | – | –
CCN(CC)c1ccc(NC(=O)c2c(-c3c(Cl)cccc3Cl)noc2CCC2OCCCO2)cc1 | – | 14 nM | – | –
CCN(CC)c1ccc(NC(=O)c2c(-c3c(Cl)cccc3Cl)noc2CCC2OCCCO2)c(C)c1 | 9 nM | 10 nM | – | –
CCC(CC)c1ccc(NC(=O)c2c(-c3c(Cl)cccc3Cl)noc2C)cc1 | > 10000 nM | – | – | –
CCN(C(C)=O)c1ccc(NC(=O)c2c(-c3c(Cl)cccc3Cl)noc2C)cc1 | > 10000 nM | – | – | –
CCN(CC)c1ccc(NC(=O)c2c(-c3c(Cl)cccc3Cl)noc2C)c(C(F)(F)F)c1 | 4100 nM | > 10000 nM | – | –
Cc1onc(-c2c(Cl)cccc2Cl)c1C(=O)Nc1ccccc1C(=O)NCc1ccccc1 | 1200 nM | 10500 nM | – | –

More lines, main results first:

IC50 [1] | IC50 [2] | SMILES | bioavailability (Rattus norvegicus [3]) | Rate of metabolism (Rattus norvegicus [4])
1900 nM | 2500 nM | CCN(CC)C(=O)c1ccccc1NC(=O)c1c(-c2c(Cl)cccc2Cl)noc1C | – | –
7500 nM | 7400 nM | O=C(Nc1ccccc1C(=O)N1CCCCC1)c1c(-c2c(Cl)cccc2Cl)noc1CCC1OCCCO1 | – | –
> 100 nM | > 10000 nM | CCN(CC)c1ccc(NC(=O)c2c(-c3c(Cl)cccc3Cl)noc2C)cc1C | – | –
9000 nM | 4500 nM | CCN(CC)c1ccc(NC(=O)c2c(-c3c(Cl)cccc3Cl)noc2C)c(C#N)c1 | – | –
340 nM | 280 nM | CCN(CC)c1ccc(NC(=O)c2c(-c3ccccc3Br)noc2C)cc1 | – | –
5500 nM | 4700 nM | CCN(C)c1ccc(NC(=O)c2c(-c3c(Cl)cccc3Cl)noc2C)cc1 | – | –
2200 nM | 2300 nM | Cc1onc(-c2c(Cl)cccc2Cl)c1C(=O)Nc1ccccc1C(=O)N1CCCCC1 | – | –
410 nM | 510 nM | CCCN(CC)c1ccc(NC(=O)c2c(-c3c(Cl)cccc3Cl)noc2C)cc1 | – | –
18500 nM | – | CCN(CC)c1ccc(NC(=O)c2c(-c3cccc(Cl)c3)noc2C)cc1 | – | –
370 nM | 41 nM | CCc1cc(N(CC)CC)ccc1NC(=O)c1c(-c2c(Cl)cccc2Cl)noc1C | – | –
4000 nM | 6800 nM | CCN(CC)c1ccc(NC(=O)c2c(-c3ccccc3OC)noc2C)cc1 | – | –
980 nM | 1700 nM | Cc1onc(-c2c(Cl)cccc2Cl)c1C(=O)Nc1ccccc1CC1c2ccccc2CCN1C (centres undefined) | – | –
7100 nM | 6000 nM | CCN(CC)c1ccc(NC(=O)c2c(-c3ccc(Cl)cc3)noc2C)cc1 | – | –
> 10000 nM | – | CCN(CC)c1ccc(NC(=O)c2c(-c3c(Cl)cccc3Cl)noc2C)cc1Cl | – | –
600 nM | 2900 nM | CCN(CC)c1ccc(NC(=O)c2c(-c3c(Cl)cccc3Cl)noc2C)c(OC)c1 | – | –
690 nM | 250 nM | CCN(CC)c1ccc(NC(=O)c2c(-c3ccccc3Cl)noc2C)cc1 | – | –
